The numbers were not newly measured in publication PMC3150604 (Journal of medicinal chemistry, 2011), which cites them from elsewhere.

The target of this data set is σ1 receptor. To be noted: read-out: σ1 receptor Ki; literature value ref 46.

`O[C@H]1CCCC[C@@H]1N1CCC(c2ccc(I)s2)CC1` [compound 5, (1S,2S)-2-(4-(5-iodothiophen-2-yl)piperidin-1-yl)cyclohexanol]: the Ki was 9.39 nM.

Usually Ki stands for the equilibrium dissociation constant of an inhibitor or competing ligand from its target.
